# Legend:
# Type in all cases: cell-based
# [1] = system: HCT116 colorectal cancer cell line; experiment: MTT cell viability assay, HCT116; details: Homo sapiens, HCT-116, 72 h incubation, mean ± SD
# Experimental: The antiproliferative activity of CA 1 and its derivatives was evaluated against a colorectal cancer (CRC) cell line (HCT116) using the MTT assay. The anticancer drug cisplatin was used as the reference drug.
# (§1) The effect of the compounds on cell viability was evaluated using the MTT assay. HCT116 (3000 cells/well), SW620 (8000 cells/well), SW480 (6000 cells/well), Caco-2 (4000 cells/well), A375 (1500 cells/well), MiaPaca-2 (2000 cells/well), and BJ (10,000 cells/well) cells were seeded in 96-well plates. After 24 h, the growth medium was replaced with a fresh medium containing the desired concentration of the compound or DMSO (control). After 72 h of incubation, the supernatant was removed and 100 µL of a mixture (1:1) of filtered MTT solution (1 mg/mL in PBS) with FBS-free medium was added to each well. After 1 h of incubation at 37 °C, the mixture was removed and 100 µL of DMSO was added to each well to dissolve the formed formazan crystals. Absorbance was immediately measured at 570 nm using a Benchmark Plus Microplate Reader (Bio-Rad Laboratories, Hercules, CA, USA). IC50 values were calculated using GraphPad Prism 9 software (GraphPad Software, San Diego, CA, USA) and expressed as the mean ± standard deviation (SD) of at least three independent experiments.
# SW620 cells = experiment: MTT cell viability assay, SW620; details: Homo sapiens, SW-620, 72 h incubation, mean ± SD
# Experimental: as §1
# Caco-2 cells = experiment: MTT cell viability assay, Caco-2; details: Homo sapiens, 72 h incubation, mean ± SD
# Experimental: as §1
# A375 melanoma cells = experiment: MTT cell viability assay, A375; details: Homo sapiens, A-375, 72 h incubation, mean ± SD
# Experimental: as §1
# [2] = system: MiaPaca-2 pancreatic cancer cells; experiment: MTT cell viability assay, MiaPaca-2; details: Homo sapiens, MIA PaCa-2, 72 h incubation, mean ± SD
# Experimental: as §1
# SW480 cells [3] = experiment: Cell proliferation assay and cell doubling time; details: SW480 cells treated at IC50 concentration; control 42 h
# Experimental: SW480 cells were seeded at a concentration of 1.68 × 10^5 cells per well in 6-well plates and incubated at 37 °C. […] Prior to treatment initiation (0 h), cells were trypsinized, washed with DPBS, and collected by centrifugation. The collected cells were resuspended in DPBS containing trypan blue and examined using an Invitrogen Countess 3 Automated Cell Counter (Thermo Fisher Scientific, Waltham, MA, USA) to determine the cell number and viability. This procedure was replicated at various treatment time points (24, 48, and 72 h) to generate a cell proliferation curve depicting the changes over time. Cell doubling time was calculated by dividing the natural logarithm of 2 by the growth rate.
# SW480 cells [4] = experiment: Cell cycle assay (PI, FACS); details: SW480, IC50 concentration
# Experimental: SW480 cells were seeded in 6-well plates and treated as described for the apoptosis assay. After centrifugation, the cells were resuspended in 500 µL DPBS and added dropwise to 4.5 mL 70% (v/v) cold ethanol. The cell suspension was kept at −20 °C for a minimum of 4 h. The cell suspension was then centrifuged, washed with cold DPBS, resuspended in 360 µL DPBS containing 10 µL RNase (10 mg/mL), and incubated for 1 h, at 37 °C, with agitation. Before FACS analysis, 20 µL PI solution (1 mg/mL) was added to the samples. FACS analysis was performed using a Gallios flow cytometer (Beckman Coulter, Brea, CA, USA) at 488 nm. Data were acquired from 1 × 10^4 cells and subsequently analyzed using the multicycle software provided by Phoenix Flow Systems (San Diego, CA, USA).
# CDK4 = experiment: Western blot, CDK4 expression in SW480 cells; details: SW480, IC50 concentration, 24 and 72 h
# Experimental: SW480 cells (1.68 × 10^5 cells/well) were seeded in 6-well plates and incubated at 37 °C for 24 h. […] At the end of the treatment period, cells were washed twice with ice-cold DPBS and incubated for 30 min. at 4 °C with lysis buffer containing 20 mM Tris-HCl (pH 7.5), 1 mM DTT, 0.2% Triton X-100, 1 mM Na-EDTA, 0.5 mM sodium deoxycholate, 1% proteases inhibitor cocktail, and 0.5% phosphatases inhibitor cocktail. The cells were scraped, sonicated, and centrifuged at 12,000× g for 20 min. at 4 °C. The supernatants were recovered, and the protein concentration was quantified using Pierce^TM BCA protein assay reagents A and B and Pierce^TM bovine serum albumin standard ampules (2 mg/mL).
# Membranes were blocked with 5% skim milk in PBS-Tween-20 (0.1%) for 1 h at room temperature, following its incubation with the specific primary antibodies overnight at 4 °C (CDK4, CDK6, and SOD2 (MnSOD)). Exceptionally, the primary antibody against actin was only incubated for 30 min. at room temperature. The membranes were then washed with PBS-Tween-20 (0.1%) and incubated for 40 min. with an anti-mouse secondary antibody or for 1 h with an anti-rabbit secondary antibody. After incubation, the membranes were washed again with PBS-Tween-20 (0.1%) and treated with the Immobilon Western Chemiluminescent HRP Substrate Kit. […]
smiles,measurement,setting,value
"CC(=O)Oc1c(C(C)C)cc2c(c1OC(C)=O)[C@@]1(NC(=O)NCCc3cccc(Cl)c3)CCCC(C)(C)[C@@H]1CC2 [Compound 14, (4bR,8aS)-4b-(3-(3-chlorophenethyl)ureido)-2-isopropyl-8,8-dimethyl-4b,5,6,7,8,8a,9,10-octahydrophenanthrene-3,4-diyl diacetate]",IC50,[1],9.8 ± 0.5 µM
same,IC50,SW620 cells,6.1 ± 0.3 µM
same,IC50,Caco-2 cells,8 ± 0.5 µM
same,IC50,A375 melanoma cells,7 ± 0.4 µM
same,IC50,[2],9 ± 0.8 µM
same,cell doubling time,SW480 cells [3],70 h
same,percentage of cells in the G0/G1 phase,"SW480 cells [4]; 24 h, control 50.3%",71%
same,percentage of cells in the G0/G1 phase,"SW480 cells [4]; at the three time points (24, 48, 72 h)",higher than 66.6%
same,CDK4 expression versus untreated cells,CDK4,downregulation
